{"source": "patent US10266549B2", "about": "“ULK1 inhibitors and methods using same” (SALK INSTITUTE FOR BIOLOGICAL STUDIES, priority 2014, dated 2019)", "data": [{"biological_target": "ULK1 (Homo sapiens (Human), UniProt O75385)", "sequence (O75385 whole entry, species assumed)": "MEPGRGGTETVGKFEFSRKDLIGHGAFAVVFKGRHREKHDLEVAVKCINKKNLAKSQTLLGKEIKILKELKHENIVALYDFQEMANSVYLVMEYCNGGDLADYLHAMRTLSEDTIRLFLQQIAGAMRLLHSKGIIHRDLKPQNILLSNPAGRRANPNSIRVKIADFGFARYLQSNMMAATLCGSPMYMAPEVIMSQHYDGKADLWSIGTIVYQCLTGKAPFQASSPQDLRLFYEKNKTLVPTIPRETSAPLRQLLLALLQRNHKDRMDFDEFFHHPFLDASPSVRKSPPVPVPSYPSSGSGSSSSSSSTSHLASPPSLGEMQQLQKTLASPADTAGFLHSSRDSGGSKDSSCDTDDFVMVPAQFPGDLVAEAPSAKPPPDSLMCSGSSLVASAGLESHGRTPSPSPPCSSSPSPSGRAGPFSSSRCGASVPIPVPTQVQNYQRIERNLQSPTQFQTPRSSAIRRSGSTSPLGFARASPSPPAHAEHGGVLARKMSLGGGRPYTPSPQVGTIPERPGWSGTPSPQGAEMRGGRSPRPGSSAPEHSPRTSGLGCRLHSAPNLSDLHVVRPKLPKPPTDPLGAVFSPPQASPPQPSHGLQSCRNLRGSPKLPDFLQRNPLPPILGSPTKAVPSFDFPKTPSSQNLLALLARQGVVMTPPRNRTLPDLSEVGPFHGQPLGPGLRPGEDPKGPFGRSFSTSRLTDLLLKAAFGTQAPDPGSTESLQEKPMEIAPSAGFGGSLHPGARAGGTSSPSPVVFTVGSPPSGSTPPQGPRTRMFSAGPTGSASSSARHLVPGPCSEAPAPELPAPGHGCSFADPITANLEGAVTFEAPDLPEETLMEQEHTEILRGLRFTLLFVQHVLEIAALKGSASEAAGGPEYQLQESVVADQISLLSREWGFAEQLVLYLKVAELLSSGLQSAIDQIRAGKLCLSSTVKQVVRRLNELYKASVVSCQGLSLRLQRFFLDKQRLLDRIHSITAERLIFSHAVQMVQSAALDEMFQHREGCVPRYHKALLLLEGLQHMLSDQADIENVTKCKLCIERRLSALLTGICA", "assay": "ULK1 inhibition assay (Table 1)", "type": "biochemical", "settings": "* = tested as a mixture of regioisomers", "units": {"IC50": "nM"}, "values": [{"compound": "COc1ccc(C)c(Nc2ncc(Cl)c(NCc3cccc(S(C)(=O)=O)c3)n2)c1", "note": "[compound 41, 5-Chloro-N^2-(5-methoxy-2-methylphenyl)-N^4-(3-(methylsulfonyl)benzyl)pyrimidine-2,4-diamine]", "IC50": "> 2000"}, {"compound": "CNC(=O)c1ccccc1Nc1nc(Nc2cc(OC)ccc2C)ncc1C(F)(F)F", "note": "[compound 42, 2-(2-(5-Methoxy-2-methylphenylamino)-5-(trifluoromethyl)pyrimidin-4-ylamino)-N-methylbenzamide]", "IC50": "< 200"}, {"compound": "O=C1CCc2cc(Nc3ncc(C(F)(F)F)c(NCc4ccccc4)n3)ccc2N1", "note": "[compound 43, 6-(4-(Benzylamino)-5-(trifluoromethyl)pyrimidin-2-ylamino)-3,4-dihydroquinolin-2(1H)-one]", "IC50": "< 200"}, {"compound": "CNC(=O)c1ccccc1Nc1nc(Nc2cccc(OC)c2)ncc1Cl", "note": "[compound 44, 2-(5-Chloro-2-(3-methoxyphenylamino)pyrimidin-4-ylamino)-N-methylbenzamide]", "IC50": "< 200"}, {"compound": "COc1cc(N2CCOCC2)ccc1Nc1ncc(C(F)(F)F)c(Nc2ccccn2)n1", "note": "[compound 46, N^2-(2-Methoxy-4-morpholinophenyl)-N^4-(pyridin-2-yl)-5-(trifluoromethyl) pyrimidine-2,4-diamine]", "IC50": "200 to 2000"}, {"compound": "O=C1CCc2cc(Nc3ncc(C(F)(F)F)c(Nc4ccccc4)n3)ccc2N1", "note": "[compound 48, 6-(4-(Phenylamino)-5-(trifluoromethyl)pyrimidin-2-ylamino)-3,4-dihydroquinolin-2(1H)-one]", "IC50": "< 200"}, {"compound": "CNC(=O)c1ccccc1Nc1nc(Nc2ccc3c(c2)OCO3)ncc1Cl", "note": "[compound 49, 2-(2-(Benzo[d][1,3]dioxol-5-ylamino)-5-chloropyrimidin-4-ylamino)-N-methylbenzamide]", "IC50": "< 200"}, {"compound": "CNC(=O)c1ccccc1Nc1nc(Nc2ccc3c(c2)OCCO3)ncc1Cl", "note": "[compound 51, 2-(5-Chloro-2-(2,3-dihydrobenzo[b][1,4]dioxin-6-ylamino)pyrimidin-4-ylamino)-N-methylbenzamide]", "IC50": "< 200"}, {"compound": "COc1cc(N2CCOCC2)ccc1Nc1ncc(C(F)(F)F)c(NCc2cccc(S(C)(=O)=O)c2)n1", "note": "[compound 52, N^2-(2-Methoxy-4-morpholinophenyl)-N^4-(3-(methylsulfonyl)benzyl)-5-(trifluoromethyl)pyrimidine-2,4-diamine]", "IC50": "> 2000"}, {"compound": "CNC(=O)c1ccccc1Nc1nc(Nc2ccccc2C)ncc1Cl", "note": "[compound 53, 2-(5-Chloro-2-(o-tolylamino)pyrimidin-4-ylamino)-N-methylbenzamide]", "IC50": "> 2000"}, {"compound": "COc1ccc(C)c(Nc2ncc(Cl)c(Nc3cccc(CC#N)c3)n2)c1", "note": "[compound 54, 2-(3-(5-Chloro-2-(5-methoxy-2-methylphenylamino)pyrimidin-4-ylamino)phenyl)acetonitrile]", "IC50": "> 2000"}, {"compound": "COc1ccc(C)c(Nc2ncc(Cl)c(Nc3nccc(C)n3)n2)c1", "note": "[compound 55, 5-Chloro-N^2-(5-methoxy-2-methylphenyl)-N^4-(4-methylpyrimidin-2-yl)pyrimidine-2,4-diamine]", "IC50": "> 2000"}, {"compound": "CS(=O)(=O)c1cccc(CNc2nc(Nc3ccc4c(c3)CCC(=O)N4)ncc2F)c1", "note": "[compound 56, 6-((5-Fluoro-4-((3-(methylsulfonyl)benzyl)amino)pyrimidin-2-yl)amino)-3,4-dihydroquinolin-2(1H)-one]", "IC50": "> 2000"}, {"compound": "CNC(=O)c1ccccc1Nc1nc(Nc2cc3c(cc2C)OCO3)ncc1Cl", "note": "[compound 57, 2-(5-Chloro-2-(6-methylbenzo[d][1,3]dioxol-5-ylamino)pyrimidin-4-ylamino)-N-methylbenzamide]", "IC50": "< 200"}, {"compound": "O=C1CCc2cc(Nc3ncc(C(F)(F)F)c(Nc4nccs4)n3)ccc2N1", "note": "[compound 58, 6-(4-(Thiazol-2-ylamino)-5-(trifluoromethyl)pyrimidin-2-ylamino)-3,4-dihydroquinolin-2(1H)-one]", "IC50": "> 2000"}, {"compound": "CNC(=O)c1ccccc1Nc1ccnc(Nc2cc(OC)c(OC)c(OC)c2)n1", "note": "[compound 60, N-Methyl-2-(2-(3,4,5-trimethoxyphenylamino)pyrimidin-4-ylamino)benzamide]", "IC50": "< 200"}, {"compound": "N#CCc1cccc(Nc2nc(Nc3ccc4c(c3)CCC(=O)N4)ncc2C(F)(F)F)c1", "note": "[compound 61, 2-(3-(2-(2-Oxo-1,2,3,4-tetrahydroquinolin-6-ylamino)-5-(trifluoromethyl)pyrimidin-4-ylamino)phenyl)acetonitrile]", "IC50": "< 200"}, {"compound": "O=C1CCc2cc(Nc3ncc(C(F)(F)F)c(SCc4ccccc4)n3)ccc2N1", "note": "[compound 62, 6-(4-(Benzylthio)-5-(trifluoromethyl)pyrimidin-2-ylamino)-3,4-dihydroquinolin-2(1H)-one]", "IC50": "< 200"}, {"compound": "O=C1CCc2cc(Nc3ncc(C(F)(F)F)c(C#Cc4ccccc4)n3)ccc2N1", "note": "[compound 64, 6-(4-(Phenylethynyl)-5-(trifluoromethyl)pyrimidin-2-ylamino)-3,4-dihydroquinolin-2(1H)-one]", "IC50": "> 2000"}, {"compound": "O=C1CCc2cc(Nc3ncc(C(F)(F)F)c(CCc4ccccc4)n3)ccc2N1", "note": "[compound 66, 6-((4-Phenethyl-5-(trifluoromethyl)pyrimidin-2-yl)amino)-3,4-dihydroquinolin-2(1H)-one]", "IC50": "200 to 2000"}, {"compound": "Cc1cnc(Nc2ccc3c(c2)CCC(=O)N3)nc1NCc1cccc(S(C)(=O)=O)c1", "note": "[compound 67, 6-((5-Methyl-4-((3-(methylsulfonyl)benzyl)amino)pyrimidin-2-yl)amino)-3,4-dihydroquinolin-2(1H)-one]", "IC50": "> 2000"}, {"compound": "O=C1CCc2cc(Nc3ncc(C(F)(F)F)c(/C=C/c4ccccc4)n3)ccc2N1", "note": "[compound 69, (E)-6-(4-Styryl-5-(trifluoromethyl)pyrimidin-2-ylamino)-3,4-dihydroquinolin-2(1H)-one]", "IC50": "< 200"}, {"compound": "CNC(=O)c1ccccc1Nc1nc(Nc2cc(OC)c(OC)c(OC)c2)ncc1/C=C/c1ccccc1", "note": "[compound 71, (E)-N-Methyl-2-((5-styryl-2-((3,4,5-trimethoxyphenyl)amino)pyrimidin-4-yl)amino)benzamide]", "IC50": "< 200"}, {"compound": "O=C1CCc2cc(Nc3ncc(C(F)(F)F)c(-c4ccccc4)n3)ccc2N1", "note": "[compound 72, 6-(4-Phenyl-5-(trifluoromethyl)pyrimidin-2-ylamino)-3,4-dihydroquinolin-2(1H)-one]", "IC50": "> 2000"}, {"compound": "CNC(=O)c1ccccc1Nc1nc(Nc2cc(OC)c(OC)c(OC)c2)ncc1-c1ccccc1", "note": "[compound 73, N-Methyl-2-(5-phenyl-2-(3,4,5-trimethoxyphenylamino)pyrimidin-4-ylamino)benzamide]", "IC50": "< 200"}, {"compound": "CNC(=O)c1ccccc1Nc1nc(Nc2ccccc2Cl)ncc1Cl", "note": "[compound 74, 2-(5-Chloro-2-(2-chlorophenylamino)pyrimidin-4-ylamino)-N-methylbenzamide]", "IC50": "200 to 2000"}, {"compound": "CNS(=O)(=O)c1ccccc1Nc1nc(Nc2ccc(N3CCOCC3)cc2OC)ncc1Br", "note": "[compound 75, 2-(5-Bromo-2-(2-methoxy-4-morpholinophenylamino)pyrimidin-4-ylamino)-N-methylbenzenesulfonamide]", "IC50": "200 to 2000"}, {"compound": "CNC(=O)c1ccccc1Nc1nc(Nc2ccc3c(c2)CCC(=O)N3)ncc1C(F)(F)F", "note": "[compound 76, N-Methyl-2-(2-(2-oxo-1,2,3,4-tetrahydroquinolin-6-ylamino)-5-(trifluoromethyl)pyrimidin-4-ylamino)benzamide]", "IC50": "< 200"}, {"compound": "CNC(=O)c1ccccc1Nc1nc(Nc2cc(N3CCOCC3)cc(N3CCOCC3)c2)ncc1Cl", "note": "[compound 78, 2-(5-Chloro-2-(3,5-dimorpholinophenylamino)pyrimidin-4-ylamino)-N-methylbenzamide]", "IC50": "200 to 2000"}, {"compound": "COc1cc(N2CCOCC2)ccc1Nc1ncc(Br)c(Nc2ccccc2S(=O)(=O)N(C)C)n1", "note": "[compound 80, 2-(5-Bromo-2-(2-methoxy-4-morpholinophenylamino)pyrimidin-4-ylamino)-N—N-dimethylbenzenesulfonamide]", "IC50": "< 200"}, {"compound": "O=C1CCc2cc(Nc3ncc(C(F)(F)F)c(OCc4ccccc4)n3)ccc2N1", "note": "[compound 81, 6-(4-(Benzyloxy)-5-(trifluoromethyl)pyrimidin-2-ylamino)-3,4-dihydroquinolin-2(1H)-one]", "IC50": "< 200"}, {"compound": "COc1c(C)cnc(CNc2nc(Nc3ccc4c(c3)CCC(=O)N4)ncc2C(F)(F)F)c1C", "note": "[compound 82, 6-((4-(((4-Methoxy-3,5-dimethylpyridin-2-yl)methyl)amino)-5-(trifluoromethyl)pyrimidin-2-yl)amino)-3,4-dihydroquinolin-2(1H)-one]", "IC50": "< 200"}, {"compound": "Cc1cccc(Oc2nc(Nc3ccc4c(c3)CCC(=O)N4)ncc2C(F)(F)F)c1C", "note": "[compound 83, 6-((4-(2,3-Dimethylphenoxy)-5-(trifluoromethyl)pyrimidin-2-yl)amino)-3,4-dihydroquinolin-2(1H)-one]", "IC50": "< 200"}, {"compound": "CNC(=O)c1ccccc1Nc1nc(Nc2cc(OC)c(OC)c(OC)c2)ncc1CCc1ccccc1", "note": "[compound 87, N-Methyl-2-((5-phenethyl-2-((3,4,5-trimethoxyphenyl)amino)pyrimidin-4-yl)amino)benzamide]", "IC50": "200 to 2000"}, {"compound": "CNC(=O)c1ccccc1Nc1nc(Nc2ccc3c(c2)CCC(=O)N3)ncc1-c1ccccc1", "note": "[compound 89, N-Methyl-2-((2-((2-oxo-1,2,3,4-tetrahydroquinolin-6-yl)amino)-5-phenylpyrimidin-4-yl)amino)benzamide]", "IC50": "< 200"}, {"compound": "CNC(=O)c1ccccc1Nc1nc(Nc2cc(N3CCOCC3)cc(N3CCOCC3)c2)ncc1C(F)(F)F", "note": "[compound 90, 2-(2-(3,5-dimorpholinophenylamino)-5-(trifluoromethyl)pyrimidin-4-ylamino)-N-methylbenzamide]", "IC50": "< 200"}, {"compound": "CNC(=O)c1ccccc1Oc1nc(Nc2cc(OC)c(OC)c(OC)c2)ncc1C(F)(F)F", "note": "[compound 92, N-Methyl-2-(5-(trifluoromethyl)-2-(3,4,5-trimethoxyphenylamino)pyrimidin-4-yloxy)benzamide]", "IC50": "< 200"}, {"compound": "CNC(=O)c1ccccc1Oc1nc(Nc2ccccc2)ncc1C(F)(F)F", "note": "[compound 99, N-methyl-2-((2-(phenylamino)-5-(trifluoromethyl)pyrimidin-4-yl)oxy)benzamide]", "IC50": "> 2000"}, {"compound": "CNC(=O)c1ccccc1Oc1nc(Nc2cc(Br)ccc2C)ncc1C(F)(F)F", "note": "[compound 100, 2((2-((5-bromo-2-methylphenyl)amino)-5-(trifluoromethyl)pyrimidin-4-yl)oxy)-N-methylbenzamide]", "IC50": "> 2000"}]}]}
